Read-outs that look alike come from different tables or passages of the source.
Experiments:
[1] = system: B16-F10 murine melanoma cell line; test: Cytotoxicity in B16-F10 cells (MTT); type: cell-based; conditions: 48 h
Method in brief: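 Cells in F10-Ham with 1% FBS exposed to various compound concentrations for 48 h after 24 h pre-culture. MTT read-out: formazan dissolved in DMSO, absorbance at 570 nm. Viability expressed as percent of DMSO control (AT/AC×100).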

[2] = Lipophilicity coefficient RM0 by reversed phase thin layer chromatography; type: physicochemical; conditions: RP-18 TLC, methanol / 100 mM phosphate buffer pH = 7.4
Method in brief: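 Reversed-phase TLC on RP-18 F254 silica, with methanol/100 mM phosphate buffer pH 7.4 mobile phases of 95–65% (v/v) methanol, at room temperature, in duplicate. Spots were visualized under UV at 254 nm. RM = log(1/Rf − 1) was plotted linearly against methanol content to derive RM0.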

[3] = system: Chinese hamster ovary cell line (CHO-K1); test: Genotoxicity in the micronucleus test in CHO-K1 cells; type: cell-based
tyrosinase from mushroom = test: Inhibition of commercial mushroom tyrosinase (L-DOPA or L-tyrosine substrate); type: biochemical
Method in brief: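 Tyrosinase (1U/well or 3U/well) in 50 mM phosphate buffer pH 6.8 with compound at final 500, 250 or 125 µM; L-DOPA (diphenolase) or L-tyrosine (monophenolase) added in separate runs. Absorbance at 475 nm after 25 min; % inhibition versus DMSO control.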

[4] = system: Chinese hamster ovary cell line (CHO-K1); test: Cytotoxicity in CHO-K1 cells (MTT) before the micronucleus test; type: cell-based; conditions: 24 hours
Protocol: The assay was performed using a Chinese hamster ovary cell line (CHO-K1) purchased from the American Type Culture Collection (ATCC). The cells were cultured in F-12K medium with the addition of 10% fetal bovine serum (FBS) and antibiotics (streptomycin/penicillin) in an incubator at 37 °C and 5% CO2 concentration). Before the actual micronucleus test, a cytotoxicity assessment was performed to ensure that the actual test was performed only at safe concentrations. For this purpose, cells were transferred to 96-well plates and incubated with the tested compounds for 24 hours. After this time, the MTT test was performed and cell viability was assessed in comparison to the control group (cells cultured with DMSO at the same concentration as in the case of the tested samples).

[5] = L-DOPA, read-out: Tyrosinase inhibition with L-DOPA, IC50
[6] = L-tyrosine, read-out: Tyrosinase inhibition with L-tyrosine, IC50

Structure (SMILES) | Cytotoxicity study in B16F10 cells % viability ([1]; 150 µM) [%] | Cytotoxicity study in B16F10 cells % viability ([1]; 200 µM) [%] | Cytotoxicity study in B16F10 cells % viability ([1]; 250 µM) [%] | RM0 [2] | DB (dicentric bridges in 1000 binucleate cells) ([3]; 100 µM) | MN (number of micronuclei in 1000 binucleate cells) ([3]; 100 µM) | NB (nuclear buds in 1000 binucleate cells) ([3]; 100 µM) | NDI (nuclear division index) ([3]; 100 µM) | DB (dicentric bridges in 1000 binucleate cells) ([3]; 150 µM) | MN (number of micronuclei in 1000 binucleate cells) ([3]; 150 µM) | NB (nuclear buds in 1000 binucleate cells) ([3]; 150 µM) | NDI (nuclear division index) ([3]; 150 µM) | DB (dicentric bridges in 1000 binucleate cells) ([3]; 200 µM) | MN (number of micronuclei in 1000 binucleate cells) ([3]; 200 µM) | NB (nuclear buds in 1000 binucleate cells) ([3]; 200 µM) | NDI (nuclear division index) ([3]; 200 µM) | IC50 (tyrosinase from mushroom; [5]) [µM] | Tyrosinase inhibition with L-tyrosine [%] (tyrosinase from mushroom; L-tyrosine) | IC50 (tyrosinase from mushroom; [6]) [µM] | Tyrosinase inhibition with L-DOPA [%] (tyrosinase from mushroom; L-DOPA) | further results
O=C(/C=C/c1ccc(Cl)cc1)NCCCCCO [Compound A-111, (2E)-3-(4-chlorophenyl)-N-(5-hydroxypentyl)prop-2-enamide] | 88.2 | 95.6 | 89.7 | 2.79 | 2.5 ± 0.7 | 4.5 ± 3.5 | 2.0 ± 2.8 | 1.60 | 4.0 ± 2.8 | 9.0 ± 5.7 | 6.0 ± 1.0 | 1.64 | 2.0 ± 2.8 | 10.0 ± 4.2 | 2.5 ± 0.7 | 1.64 | 147 | 88.98±0.98% (500 µM) | 37 |  | Tyrosinase inhibition with L-DOPA [%] (tyrosinase from mushroom; L-DOPA, 250 µM): 59.94±1.56% (250 µM); % Viability [mean] ([4]; 100 µM): 86.1%; % Viability [mean] ([4]; 150 µM): 95.6%; % Viability [mean] ([4]; 200 µM): 98.6%
O=C(/C=C/c1ccccc1)NCCCCCO [Compound A-133, (2E)-N-(5-hydroxypentyl)-3-phenylprop-2-enamide] | 101.7 | 94.9 | 95.6 | 2.15 | 3.8 ± 2.8 | 7.8 ± 2.9 | 6.3 ± 3.7 | 1.64 | 3.7 ± 2.3 | 6.0 ± 1.9 | 4.5 ± 3.3 | 1.65 | 3.3 ± 1.4 | 6.8 ± 3.2 | 4.7 ± 1.8 | 1.66 | 523 | 58.56±4.58% (500 µM) | 450 | 47.96±1.83% (500 µM) | % Viability [mean] ([4]; 100 µM): 94.6%; % Viability [mean] ([4]; 150 µM): 97.2%; % Viability [mean] ([4]; 200 µM): 89.1%
O=C(/C=C/c1ccc(Cl)cc1)NCCCO [H-330/21, (2E)-3-(4-chlorophenyl)-N-(3-hydroxypropyl)prop-2-enamide] | 78.6 | 82.9 | 83.9 | 1.94 |  |  |  |  |  |  |  |  |  |  |  |  | 265 | 82.49±0.65% (500 µM) | 106 | 55.32±1.39% (500 µM) | 
Cc1ccc(/C=C/C(=O)NCCCCCO)cc1 [H-415/21, (2E)-N-(5-hydroxypentyl)-3-(4-methylphenyl)prop-2-enamide] | 85.2 | 90.3 | 75.7 | 2.49 | 1.5 ± 0.7 | 12.5 ± 0.7 | 5.0 ± 1.4 | 1.54 | 3.5 ± 2.1 | 12.0 ± 2.8 | 5.5 ± 2.1 | 1.50 | 2.5 ± 0.7 | 11.5 ± 3.5 | 6.0 ± 1.4 | 1.52 |  | 25.04±5.67% (500 µM) |  | 30.43±0.88% (500 µM) | % Viability [mean] ([4]; 100 µM): 102.2%; % Viability [mean] ([4]; 150 µM): 102.8%; % Viability [mean] ([4]; 200 µM): 87.2%
O=C(/C=C/c1ccccc1)NCCCCCCO [H-425/21, (E)-N-(6-hydroxyhexyl)cinnamic acid amide] | 109.2 | 98.4 | 86.9 | 2.40 | 2.5 ± 0.7 | 11.0 ± 4.2 | 3.5 ± 0.7 | 1.56 | 2.5 ± 2.1 | 11.5 ± 0.7 | 3.5 ± 0.7 | 1.52 | 4.5 ± 3.5 | 12.5 ± 6.4 | 5.5 ± 0.7 | 1.60 |  | 44.61±5.99% (500 µM) | 764 | 34.63±2.46% (500 µM) | % Viability [mean] ([4]; 100 µM): 87.6%; % Viability [mean] ([4]; 150 µM): 83.8%; % Viability [mean] ([4]; 200 µM): 88.0%
O=C(/C=C/c1ccc(Cl)cc1)NCCO [H-427/21, (2E)-3-(4-chlorophenyl)-N-(2-hydroxyethyl)prop-2-enamide] | 73.7 | 80.2 | 77.8 | 1.93 |  |  |  |  |  |  |  |  |  |  |  |  | 278 | 67.45±2.66% (500 µM) | 196 | 55.77±0.77% (500 µM) | 

Source: patent EP4324461A1, “(E)-N-CINAMOYLAMINOALKANOLES WITH MELANOGENESIS INHIBITORY ACTIVITY” (UNIWERSYTET JAGIELLONSKI, priority 2022, dated 2024)
